Laboratory results published in patent US20220313724A1, “COMPOSITIONS FOR INTRATUMORAL ADMINISTRATION AND RELATED METHODS” (HIGHLIGHT THERAPEUTICS, S.L., priority 2021, published 2022).

Experiments:
MC38 or B16.OVA cells = test: Single-agent repeated intratumoral injections in mice bearing bilateral tumors; type: in vivo, mouse; conditions: injected tumor
Source text: Mouse tumor models. […] Female mice were used at 8-12 weeks of age and housed under specific pathogen-free conditions. The abscopal effect was studied by injecting 4×10^5 MC38 or B16.OVA cells subcutaneously (s.c.) into the right flank of C57BL/6 mice, whereas the left flank received an injection (s.c.) of 2×10^5 (MC38) or 1.25×10^5 (B16.OVA) cancer cells. When right tumors reached a tumor volume of 80-100 mm^3 (approximately one week after tumor inoculation), mice were randomized into different treatment groups.
Evaluation of compounds. […] Control mice received intratumoral injections of PBS containing 5% glucose and/or 5% DMSO (vehicle) as indicated. Treated and untreated tumors were measured twice a week with calipers and the volume was calculated (length×width^2/2). […] When right and left tumors reached a diameter of 80-100 mm, mice were randomized to three groups. […] The control, untreated third-party tumor was untreated in all groups.

[1] = test system: circulating cytokines or chemokines; test: Circulating cytokines or chemokines after intratumoral treatment; type: in vivo, mouse; conditions: systemic

## Cc1ccc2c(=O)c3cccc(CC(=O)O)c3oc2c1C [DMXAA, 5,6-dimethylxanthenone-4-acetic acid]
MC38 or B16.OVA cells
  response of directly injected tumors to the treatment: remarkably responded
[1]
  circulating type I Interferons, IL-12, IL-18, TNFalpha (TNFα) and CXCL10: either did not cause systemic circulating elevations or only enhanced those observed upon treatment with BO-112
